Consider one substance from patent publication US20240108734A1, “METHODS FOR TREATING AND AMELIORATING CANCER” (The Regents of the University of California, priority 2021, published 2024).

Entries after “also recorded” stand apart in the source; their conditions may differ.

The assay relates to BC CML CD34+ cells engrafted in RAG2-/-yc-/- mice. Nature of the assay: Humanized BC CML LSC mouse model. It counts as in vivo. An excerpt:
Human CD34^+ cells isolated from MF and BC CML samples (Table S2, illustrated as FIG. 11) were transplanted intravenously into adult NSG-SGM3 (expressing human IL-3, GM-CSF and SCF) mice following 300 cGy of irradiation or intrahepatically into neonatal RAG2^−/− yc^−/− mice, respectively^27,32.
Human CD34^+ cells isolated from MF and BC CML (Table S2) samples were transplanted intravenously into adult NSG-SGM3 (expressing human IL-3, GM-CSF and SCF) mice following
300 cGy of irradiation or intrahepatically into newborn RAG2^−/−[…]c^−/− mice^28,32,34. Post-transplantation (13 to 16 weeks), bone marrow and spleen were collected and analyzed by FACS^32. Mice were treated with vehicle, mismatch or imetelstat at varying doses. Also, MF CD34^+ cells were transduced with pCDH lentivirus control or ADAR1-OE lentivirus with a MOI of 100 for 48 hours, followed by intravenous transplantation into NSG-SGM3 mice to assess the impact of ADAR1 overexpression on MF engraftment.
FIG. 4A. A schema of humanized BC CML LSC and MF SPC mouse models. Human CD34^+ cells sorted from either BC CML or myelofibrosis patient blood or marrow were transplanted into neonatal Rag2^−/−[…]c^−/− mice or intravenously transplanted into adult NSG-S mice. Engrafted BC CML or MF mouse models were randomized into (1) vehicle control, (2) mismatch control, and (3) imetelstat treatment groups (n≥3/group). Bone marrow (BM) and spleen were collected when completing the dosing plan, and the single-cell suspension was analyzed by FACS.

[1] abbreviates: 30 mg/kg imetelstat three times a week for 4 weeks, 5 different BC CML, vs vehicle controls.

On to imetelstat, for which, under setting [1], the “human CD45+ cell proliferation / engraftment” value was “significant reduction; also recorded: reduced” and the “malignant progenitor proliferation / engraftment” value is reported as “significant reduction; also recorded: reduced”. Further, the splenomegaly result (BC CML xenograft) is “decreases splenomegaly”.
